From ChEMBL document CHEMBL1130605, “Conformationally restricted carbamate inhibitors of horse serum butyrylcholinesterase” (Bioorg Med Chem Lett, 1998) come the findings set out here.

Assay [1] addresses T1, Butyrylcholinesterase (Equus caballus, UniProt Q9N1N9). Kind of assay: Tested for kinetic data for the horse serum Butyrylcholinesterase-Catalyzed Hydrolysis of Butyrylthiocholine; 10e-3/M. sec.
Assay [2] has as its target T1, Butyrylcholinesterase. Kind of assay: Compound was evaluated for irreversible inhibition of Horse serum Butyrylcholinesterase.
For assay [3], the target named is Butyrylcholinesterase (Equus caballus) (UniProt Q9N1N9).
The target of assay [4] is T1, Butyrylcholinesterase. Kind of assay: Compound was evaluated for its inhibitory concentration against Horse serum Butyrylcholinesterase.

As for `CCCCNC(=O)OC1C2CC3CC(C2)CC1C3` (centres undefined), the Ki on Butyrylcholinesterase [1] was 1.8 10e3* M-1 s-1; on Butyrylcholinesterase [2], 800 nM. For the same molecule, the k2 in assay [3] was 1.4 10e-3 s-1.

Regarding `CCCCNC(=O)OC12CC3CC(CC(C3)C1)C2`, the Ki on Butyrylcholinesterase [1] is 1.9 10e3* M-1 s-1; at Butyrylcholinesterase [2], 800 nM. The k2 in assay [3] was 1.5 10e-3 s-1.

Regarding `CCCCNC(=O)OC1C[C@H]2CCC1C2` (stereo in doubt; 1) [listing 1 of 2 here], the Ki at Butyrylcholinesterase [1] is 110 10e3* M-1 s-1; on Butyrylcholinesterase [2], 20 nM.

For `CCCCNC(=O)OC1C[C@H]2CCC1C2` (stereo in doubt; 1) [listing 2 of 2 here], the k2 in assay [3] is 2.2 10e-3 s-1.

For `CCCCNC(=O)OC1C[C@H]2CCC1C2` (stereo in doubt; 2) [listing 1 of 2 here], the Ki is 2.2 10e3* M-1 s-1 at Butyrylcholinesterase [1] and 420 nM on Butyrylcholinesterase [2].

As to `CCCCNC(=O)OC1C[C@H]2CCC1C2` (stereo in doubt; 2) [listing 2 of 2 here], the k2 in assay [3] was 0.92 10e-3 s-1.

For the molecule `CC[N+](C)(C)c1cccc(O)c1` [EDROPHONIUM BROMIDE], the Ki on Butyrylcholinesterase [2] came to 340000 nM.

On Butyrylcholinesterase [4], `CNC(=O)Oc1ccc2c(c1)[C@]1(C)CCN(C)[C@@H]1N2C` [PHYSOSTIGMINE] registered an IC50 of 16 nM.

As a reminder, the IC50 is the point on the concentration scale where inhibition reaches its midpoint. Higher therefore signals weaker potency.
